Experiments:
Type in all cases: toxicity, cell-based
HEK-293T = experiment: Incucyte cell viability with HEK293T; conditions: human, 10 µM, compound concentration 10 uM
Fibroblast = experiment: Incucyte cell viability with human fibroblast; conditions: 10 µM, compound concentration 10 uM
U2OS = experiment: Incucyte cell viability with U2OS; conditions: human, 10 µM, compound concentration 10 uM
Also: unitless GR value; below 1 slowed growth and below 0 cell loss.

Structure (SMILES)	Growth Rate (HEK-293T; 6 h, replicate number 2)	Growth Rate (HEK-293T; 12 h, replicate number 2)	Growth Rate (HEK-293T; 18 h, replicate number 1)	Growth Rate (HEK-293T; 18 h, replicate number 2)	Growth Rate (HEK-293T; 24 h, replicate number 1)	Growth Rate (HEK-293T; 24 h, replicate number 2)	Growth Rate (Fibroblast; 0 h, replicate number 2)	Growth Rate (Fibroblast; 6 h, replicate number 1)	Growth Rate (Fibroblast; 6 h, replicate number 2)	Growth Rate (Fibroblast; 12 h, replicate number 2)	Growth Rate (Fibroblast; 18 h, replicate number 1)	Growth Rate (Fibroblast; 24 h, replicate number 1)	Growth Rate (Fibroblast; 24 h, replicate number 2)	Growth Rate (U2OS; 6 h, replicate number 1)	Growth Rate (U2OS; 18 h, replicate number 2)	Growth Rate (U2OS; 24 h, replicate number 2)	Growth Rate (HEK-293T; 0 h, replicate number 1)	Growth Rate (HEK-293T; 0 h, replicate number 2)	Growth Rate (U2OS; 0 h, replicate number 1)	Growth Rate (U2OS; 0 h, replicate number 2)	also measured
COCCN1CCN(CCn2ccc(Nc3ncc4c(n3)-c3c(nn(C)c3-c3ccccc3)C[C@H]4C)n2)CC1	-0.51	-0.33	-0.28	-0.32	-0.17	-0.22	0.9	0.35	0.5	0.24	0.37	0.52	0.41	0.91	-0.83	0.5					Growth Rate (HEK-293T; 6 h, replicate number 1): -0.53; Growth Rate (HEK-293T; 12 h, replicate number 1): -0.36; Growth Rate (Fibroblast; 12 h, replicate number 1): 0.47; Growth Rate (Fibroblast; 18 h, replicate number 2): 0.31; Growth Rate (U2OS; 6 h, replicate number 2): 0.25; Growth Rate (U2OS; 12 h, replicate number 1): -0.73; Growth Rate (U2OS; 12 h, replicate number 2): -0.9; Growth Rate (U2OS; 18 h, replicate number 1): 0.7; Growth Rate (U2OS; 24 h, replicate number 1): 0.85
CC(C)(C)C(=O)NCc1ccc(Cl)c(C(=O)Nc2ncc[nH]2)c1 [LY-3031207]							0.1	0.85	-0.3	0.86		0.89			0.97	0.94	0.13	-0.13	0.65		Growth Rate (U2OS; 12 h, replicate number 2): 0.95
NC(=O)OC[C@H](NC(=O)Cn1nc(-c2ccc(Cl)cc2)n(C[C@H](O)C(F)(F)F)c1=O)c1cccc(C(F)(F)F)c1			0.84	0.83	0.71	0.79	0.27	0.56	-0.17	0.75	0.71	0.84	0.7	0.83			0.72	-0.43	0.95		Growth Rate (HEK-293T; 12 h, replicate number 1): 0.8; Growth Rate (Fibroblast; 12 h, replicate number 1): 0.83; Growth Rate (Fibroblast; 18 h, replicate number 2): 0.65; Growth Rate (U2OS; 12 h, replicate number 1): 0.85; Growth Rate (U2OS; 24 h, replicate number 1): 0.9
O=C(CCCN1CCC(O)(c2ccc(Cl)cc2)CC1)c1ccc(F)cc1 [HALOPERIDOL]	0.42	0.63		0.65		0.75		0.04	-0.32	-0.02	0.49	0.65	0.4		1			-0.68	0.26	0.79	Growth Rate (Fibroblast; 12 h, replicate number 1): 0.4; Growth Rate (Fibroblast; 18 h, replicate number 2): 0.22; Growth Rate (U2OS; 6 h, replicate number 2): 0.98; Growth Rate (U2OS; 12 h, replicate number 1): -0.1
C1=Cc2ccccc2C(=C2CCN(CCCCc3nn[nH]n3)CC2)c2ccccc21	0.78	0.94	0.91				-0.99							0.4			0.42				Growth Rate (HEK-293T; 6 h, replicate number 1): 0.94; Growth Rate (U2OS; 24 h, replicate number 1): 0.89
Cc1ccc(-c2c(C(=O)CF)n(CCCO)c3ncnc(N)c23)cc1	0.16	0.68	0.96	0.85		0.87			-1	-0.21	0.29	0.33	0.41		0.96	0.98			0.43	-0.79	Growth Rate (HEK-293T; 6 h, replicate number 1): -0.57; Growth Rate (HEK-293T; 12 h, replicate number 1): 0.54; Growth Rate (Fibroblast; 18 h, replicate number 2): 0.3; Growth Rate (U2OS; 6 h, replicate number 2): 0.44; Growth Rate (U2OS; 12 h, replicate number 1): 0.92
CCOC(=O)c1ncn2c1[C@@H]1CCCN1C(=O)c1cc(OC)ccc1-2		0.89	0.83		0.82	0.95	-0.85	0.02	0.2		0.09	0.63		0.4			0.49	1	-0.46	-0.82	Growth Rate (Fibroblast; 0 h, replicate number 1): 0.48; Growth Rate (U2OS; 12 h, replicate number 1): 0.92; Growth Rate (U2OS; 18 h, replicate number 1): 0.9; Growth Rate (U2OS; 24 h, replicate number 1): 0.81
O=C(Nc1ccc(Oc2ccc(Cl)cc2)c(Cl)c1)c1cc(I)cc(I)c1O [RAFOXANIDE]	0.49	0.91	-0.55		-0.48		-0.93	-0.56						0.57					0.6	-1	Growth Rate (HEK-293T; 6 h, replicate number 1): -0.37; Growth Rate (HEK-293T; 12 h, replicate number 1): -0.61; Growth Rate (Fibroblast; 12 h, replicate number 1): -1; Growth Rate (U2OS; 12 h, replicate number 1): 0.92; Growth Rate (U2OS; 12 h, replicate number 2): 0.74; Growth Rate (U2OS; 18 h, replicate number 1): 0.88
CN(c1ccc(C(F)(F)F)cc1)S(=O)(=O)c1ccc(C(=O)Nc2nc(-c3ccccn3)cs2)cc1				0.84	0.82	0.76						0.92	0.82			1			-1		Growth Rate (U2OS; 6 h, replicate number 2): 0.76; Growth Rate (U2OS; 12 h, replicate number 2): 0.65; Growth Rate (U2OS; 18 h, replicate number 1): 0.94
COc1ccc2nc3ccc(OC)cc3c(SCCCN)c2c1.Cl	0.26	0.76	-0.57	0.45	-0.41	0.33	-0.39	-1					0.89		0.99	0.85				-0.96	Growth Rate (HEK-293T; 6 h, replicate number 1): -0.94; Growth Rate (HEK-293T; 12 h, replicate number 1): -0.75; Growth Rate (U2OS; 24 h, replicate number 1): 0.86
CCCCOc1c(C(=O)c2c(F)cc(C)cc2F)c[nH]c2nncc1-2																	-1		-1		Growth Rate (Fibroblast; 0 h, replicate number 1): -1
CC[C@@]1(c2ccccc2)NC(=O)N(Cc2ccccc2)C1=O		0.77	0.95	0.86	0.84	0.82	0.5	-0.93		0.07			0.58	0.55		0.99		0.93		-0.81	Growth Rate (Fibroblast; 0 h, replicate number 1): 0.94; Growth Rate (Fibroblast; 18 h, replicate number 2): 0.7
CCn1c(-c2nonc2N)nc2ccccc21 [GW549034X]							-0.96								0.97	0.93	-1	-0.14	-1		Growth Rate (Fibroblast; 0 h, replicate number 1): -1
CC(=O)O.NCCCc1c(C(=O)O)[nH]c2ccc(C(=O)Nc3ccccc3)cc12		0.96		0.93				0.95	0.33	0.82	0.95		0.77	0.76			0.19	0.53	0.53		Growth Rate (Fibroblast; 0 h, replicate number 1): 0.6; Growth Rate (Fibroblast; 18 h, replicate number 2): 0.71; Growth Rate (U2OS; 12 h, replicate number 1): 0.87; Growth Rate (U2OS; 18 h, replicate number 1): 0.92; Growth Rate (U2OS; 24 h, replicate number 1): 0.93
CN1CCC[C@H]1c1cccnc1 [NICOTINE]	0.38	0.75	0.99	0.76	0.93	0.85	-0.9		-0.93					0.16	0.77	0.86	0.69		-0.33	-1	Growth Rate (HEK-293T; 6 h, replicate number 1): 0.4; Growth Rate (HEK-293T; 12 h, replicate number 1): 0.64; Growth Rate (U2OS; 6 h, replicate number 2): 0.24; Growth Rate (U2OS; 12 h, replicate number 2): 0.66
NCCCNCCCCNCCC(=O)NCCCCCNC(=O)[C@H](CC(N)=O)NC(=O)Cc1ccc(O)cc1O [JORO SPIDER TOXIN 3]							-1				0.85	0.49					-0.96	-1		-0.97	Growth Rate (Fibroblast; 0 h, replicate number 1): 0.16
COc1cc(-c2cncc(-c3ccc(N4CCN(C(C)C)CC4)cc3)c2C)cc(F)c1C(=O)N1CCCC1						0.92	0.49		-0.22	0.11	0.73	0.76	0.4		0.99	0.89	-0.5	-0.2			Growth Rate (Fibroblast; 0 h, replicate number 1): -0.08; Growth Rate (Fibroblast; 18 h, replicate number 2): 0.27; Growth Rate (U2OS; 12 h, replicate number 2): 1
